Laboratory results as given in publication PMC5218480 (PLoS ONE, 2017).

System: MV-4-11 cells
Test: Gene expression microarray analysis (Affymetrix PrimeView) and GSEA
Format: cell-based, human
Design: RFU PODN (11730768_x_at) / Fold change /veh PODN (11730768_x_at) / RFU LINC00158 (11744669_a_at) / Fold change /veh LINC00158 (11744669_a_at) / RFU DUSP10 (11751237_a_at) / Fold change /veh DUSP10 (11751237_a_at) / RFU ID3 (11757404_x_at) / Fold change /veh ID3 (11757404_x_at) / RFU PLEKHG5 (11737974_s_at) / Fold change /veh PLEKHG5 (11737974_s_at) / RFU LRRC4B (11730491_at) / Fold change /veh LRRC4B (11730491_at) / RFU GIMAP4 (11747438_a_at) / Fold change /veh GIMAP4 (11747438_a_at) / RFU KRT8 (11758183_x_at) / Fold change /veh KRT8 (11758183_x_at) / RFU CNN1 (11734310_a_at) / Fold change /veh CNN1 (11734310_a_at) / RFU VPS37D (11726825_at) / Fold change /veh VPS37D (11726825_at) / RFU C10orf10 (11716522_x_at) / Fold change /veh C10orf10 (11716522_x_at) / RFU KIR2DL2 /// KIR2DL4 /// KIR2DL5A /// KIR2DL5B /// KIR2DS1 /// KIR2DS2 /// KIR2DS3 /// KIR2DS4 /// KIR3DL3 /// KIR3DL3 /// KIR3DS1 (11738374_at) / Fold change /veh KIR2DL2 /// KIR2DL4 /// KIR2DL5A /// KIR2DL5B /// KIR2DS1 /// KIR2DS2 /// KIR2DS3 /// KIR2DS4 /// KIR3DL3 /// KIR3DL3 /// KIR3DS1 (11738374_at) / RFU C1QL1 (11718748_at) / Fold change /veh C1QL1 (11718748_at) / RFU TMPRSS4 (11747572_a_at) / Fold change /veh TMPRSS4 (11747572_a_at) / RFU HAMP (11756126_x_at) / Fold change /veh HAMP (11756126_x_at) / RFU RNFT2 (11725882_a_at) / Fold change /veh RNFT2 (11725882_a_at) / RFU NR4A2 (11747474_a_at) / Fold change /veh NR4A2 (11747474_a_at) / RFU ABCC12 (11746883_a_at) / Fold change /veh ABCC12 (11746883_a_at) / RFU TMEM136 (11760407_x_at) / Fold change /veh TMEM136 (11760407_x_at) / RFU CLDN22 /// WWC2 (11732394_at) / Fold change /veh CLDN22 /// WWC2 (11732394_at) / RFU HLA-DPB1 (11760878_x_at) / Fold change /veh HLA-DPB1 (11760878_x_at) / RFU SPINT1 (11716480_a_at) / Fold change /veh SPINT1 (11716480_a_at) / RFU GAP43 (11754022_s_at) / Fold change /veh GAP43 (11754022_s_at) / RFU A4GNT (11735810_at) / Fold change /veh A4GNT (11735810_at) / RFU PRB3 (11715151_x_at) / Fold change /veh PRB3 (11715151_x_at) / RFU TUBB4B (11761932_at) / Fold change /veh TUBB4B (11761932_at) / RFU CAPN14 (11732068_a_at) / Fold change /veh CAPN14 (11732068_a_at) / RFU TMCC2 (11721928_a_at) / Fold change /veh TMCC2 (11721928_a_at) / RFU IRGQ (11745062_a_at) / Fold change /veh IRGQ (11745062_a_at) / RFU FAM174B (11720279_a_at) / Fold change /veh FAM174B (11720279_a_at) / RFU TMPRSS4 (11748680_a_at) / Fold change /veh TMPRSS4 (11748680_a_at) / RFU FAM212B (11763350_a_at) / Fold change /veh FAM212B (11763350_a_at) / RFU PLEKHG5 (11743358_a_at) / Fold change /veh PLEKHG5 (11743358_a_at) / RFU ZSCAN30 (11745921_a_at) / Fold change /veh ZSCAN30 (11745921_a_at) / RFU CMKLR1 (11741424_a_at) / Fold change /veh CMKLR1 (11741424_a_at) / RFU LOC101060620 /// MAPK8IP1 (11723275_at) / Fold change /veh LOC101060620 /// MAPK8IP1 (11723275_at) / RFU SPTSSB (11747773_x_at) / Fold change /veh SPTSSB (11747773_x_at) / RFU PRSS12 (11739890_at) / Fold change /veh PRSS12 (11739890_at) / RFU BIN1 (11741810_x_at) / Fold change /veh BIN1 (11741810_x_at) / RFU WNT11 (11732464_a_at) / Fold change /veh WNT11 (11732464_a_at) / RFU C10orf10 (11716521_a_at) / Fold change /veh C10orf10 (11716521_a_at) / RFU C5orf56 (11738089_at) / Fold change /veh C5orf56 (11738089_at) / RFU CYB561 (11721691_x_at) / Fold change /veh CYB561 (11721691_x_at) / RFU ANKRD19P (11752326_a_at) / Fold change /veh ANKRD19P (11752326_a_at) / RFU OR2T12 /// OR2T33 /// OR2T8 (11738714_s_at) / Fold change /veh OR2T12 /// OR2T33 /// OR2T8 (11738714_s_at) / RFU VCAN (11748164_a_at) / Fold change /veh VCAN (11748164_a_at) / RFU JSRP1 (11732532_at) / Fold change /veh JSRP1 (11732532_at) / RFU KRTAP10-11 (11738290_x_at) / Fold change /veh KRTAP10-11 (11738290_x_at) / RFU MYO3A (11730013_a_at) / Fold change /veh MYO3A (11730013_a_at) / RFU EBF3 (11725865_a_at) / Fold change /veh EBF3 (11725865_a_at) / RFU CAMK2N1 (11719241_x_at) / Fold change /veh CAMK2N1 (11719241_x_at) / RFU C5orf56 (11738088_a_at) / Fold change /veh C5orf56 (11738088_a_at) / RFU OLFML3 (11715873_a_at) / Fold change /veh OLFML3 (11715873_a_at) / RFU LOC100653217 /// NTM (11731650_a_at) / Fold change /veh LOC100653217 /// NTM (11731650_a_at) / RFU MAPK11 (11762145_a_at) / Fold change /veh MAPK11 (11762145_a_at) / RFU FIZ1 (11724087_x_at) / Fold change /veh FIZ1 (11724087_x_at) / RFU OASL (11726364_x_at) / Fold change /veh OASL (11726364_x_at) / RFU SOX15 (11748057_x_at) / Fold change /veh SOX15 (11748057_x_at) / RFU CD79A (11719716_a_at) / Fold change /veh CD79A (11719716_a_at) / RFU HIST1H1D (11736915_at) / Fold change /veh HIST1H1D (11736915_at) / RFU CASKIN2 (11723855_a_at) / Fold change /veh CASKIN2 (11723855_a_at) / RFU LOC730098 (11760151_x_at) / Fold change /veh LOC730098 (11760151_x_at) / RFU OR4N2 (11742367_at) / Fold change /veh OR4N2 (11742367_at) / RFU PRRT2 (11749266_a_at) / Fold change /veh PRRT2 (11749266_a_at) / RFU SNX32 (11753110_a_at) / Fold change /veh SNX32 (11753110_a_at) / RFU CDHR5 (11726645_a_at) / Fold change /veh CDHR5 (11726645_a_at) / RFU RCAN1 (11760418_a_at) / Fold change /veh RCAN1 (11760418_a_at) / RFU FAM167A (11723789_a_at) / Fold change /veh FAM167A (11723789_a_at) / RFU FAM26E (11764081_at) / Fold change /veh FAM26E (11764081_at) / RFU ISYNA1 (11749810_s_at) / Fold change /veh ISYNA1 (11749810_s_at) / RFU ACY1 (11761880_at) / Fold change /veh ACY1 (11761880_at) / RFU 11764098_at / Fold change /veh 11764098_at / RFU SAMD14 (11745864_x_at) / Fold change /veh SAMD14 (11745864_x_at) / RFU NPB (11741838_a_at) / Fold change /veh NPB (11741838_a_at) / RFU TMPRSS6 (11731388_a_at) / Fold change /veh TMPRSS6 (11731388_a_at) / RFU KRTAP10-2 (11738614_at) / Fold change /veh KRTAP10-2 (11738614_at) / RFU ARHGAP8 /// PRR5-ARHGAP8 (11727945_x_at) / Fold change /veh ARHGAP8 /// PRR5-ARHGAP8 (11727945_x_at) / RFU KRTAP5-7 /// NADSYN1 (11734609_at) / Fold change /veh KRTAP5-7 /// NADSYN1 (11734609_at) / RFU RASL12 (11751679_a_at) / Fold change /veh RASL12 (11751679_a_at) / RFU CDKN2B (11736163_a_at) / Fold change /veh CDKN2B (11736163_a_at) / RFU PRF1 (11729649_at) / Fold change /veh PRF1 (11729649_at) / RFU, ZNF638 /// ZNF638-IT1 / Fold change vs veh, ZNF638 /// ZNF638-IT1 / RFU, PANK3 / Fold change vs veh, PANK3 / RFU, SH3YL1 / Fold change vs veh, SH3YL1 / RFU, ZEB2 / Fold change vs veh, ZEB2 / RFU, NRIP1 / Fold change vs veh, NRIP1 / RFU, PTTG1IP / Fold change vs veh, PTTG1IP / RFU, CAPN2 / Fold change vs veh, CAPN2 / RFU, MED14 / Fold change vs veh, MED14 / RFU, SNORA58 / Fold change vs veh, SNORA58 / RFU, C1orf63 / Fold change vs veh, C1orf63 / RFU, LRRFIP1 / Fold change vs veh, LRRFIP1 / RFU, NDUFAF7 / Fold change vs veh, NDUFAF7 / RFU, SLC12A2 / Fold change vs veh, SLC12A2 / RFU, IBTK / Fold change vs veh, IBTK / RFU, ESF1 / Fold change vs veh, ESF1 / Fold change vs veh, TMEM50B / RFU, TAOK1 / Fold change vs veh, TAOK1 / RFU, ACBD3 / Fold change vs veh, ACBD3 / RFU, TMA16 / Fold change vs veh, TMA16 / RFU, RWDD3 / Fold change vs veh, RWDD3 / RFU, BCAT1 / Fold change vs veh, BCAT1 / RFU, EDEM3 / Fold change vs veh, EDEM3 / RFU, TMEM33 / Fold change vs veh, TMEM33 / RFU, WDR75 / Fold change vs veh, WDR75 / RFU, AHCTF1 / Fold change vs veh, AHCTF1 / RFU, TFRC / Fold change vs veh, TFRC / RFU, ZDHHC17 / Fold change vs veh, ZDHHC17 / RFU, NOM1 / Fold change vs veh, NOM1 / RFU, ARL8B / Fold change vs veh, ARL8B / RFU, ZBTB11 / Fold change vs veh, ZBTB11 / RFU, TAMM41 / Fold change vs veh, TAMM41 / RFU, KIAA1704 /// LOC100996395 / Fold change vs veh, KIAA1704 /// LOC100996395 / RFU, ING1 / Fold change vs veh, ING1 / RFU, TRMT61B / Fold change vs veh, TRMT61B / RFU, FUBP3 / Fold change vs veh, FUBP3 / RFU, TP53 / Fold change vs veh, TP53 / RFU, TNKS2 / Fold change vs veh, TNKS2 / RFU, ZFP14 / Fold change vs veh, ZFP14 / RFU, ACTR2 / Fold change vs veh, ACTR2 / RFU, PPP3R1 / Fold change vs veh, PPP3R1 / RFU, PIK3R1 / Fold change vs veh, PIK3R1 / RFU, HNRNPA1 / Fold change vs veh, HNRNPA1 / RFU, RNF170 / Fold change vs veh, RNF170 / RFU, ZNF28 / Fold change vs veh, ZNF28 / RFU, RNGTT / Fold change vs veh, RNGTT / RFU, OGT / Fold change vs veh, OGT / RFU, BRD1 / Fold change vs veh, BRD1 / RFU, MARS / Fold change vs veh, MARS / RFU, ZNF655 / Fold change vs veh, ZNF655 / RFU, FAHD1 / Fold change vs veh, FAHD1 / RFU, BDP1 / Fold change vs veh, BDP1 / RFU, LRRCC1 / Fold change vs veh, LRRCC1 / RFU, ARID1A / Fold change vs veh, ARID1A / RFU, ZNF146 / Fold change vs veh, ZNF146 / RFU, ZNF330 / Fold change vs veh, ZNF330 / RFU, GPN3 / Fold change vs veh, GPN3 / RFU, C9orf123 / Fold change vs veh, C9orf123 / RFU, N4BP2L2 / Fold change vs veh, N4BP2L2 / RFU, ARFIP1 / Fold change vs veh, ARFIP1 / RFU, FAM179B / Fold change vs veh, FAM179B / RFU, BCL10 / Fold change vs veh, BCL10 / RFU, UHRF1BP1L / Fold change vs veh, UHRF1BP1L / RFU, BET1 / Fold change vs veh, BET1 / RFU, CNOT2 / Fold change vs veh, CNOT2 / RFU, ZNF268 / Fold change vs veh, ZNF268 / Fold change vs veh, ZNF507 / RFU, DGCR2 / Fold change vs veh, DGCR2 / RFU, WDSUB1 / Fold change vs veh, WDSUB1 / Fold change vs veh, HSP90B1 /// MIR3652 / RFU, ADSS / Fold change vs veh, ADSS / RFU, GK / Fold change vs veh, GK / RFU, ZNF148 / Fold change vs veh, ZNF148 / RFU, TAF9 / Fold change vs veh, TAF9 / RFU, SLC1A5 / Fold change vs veh, SLC1A5 / RFU, SLMO2 / Fold change vs veh, SLMO2 / RFU, ABCC4 / Fold change vs veh, ABCC4 / RFU, LOC101060439 /// RAP1B / Fold change vs veh, LOC101060439 /// RAP1B / RFU, RFX7 / Fold change vs veh, RFX7 / RFU, GTPBP10 / Fold change vs veh, GTPBP10 / RFU, CNEP1R1 / Fold change vs veh, CNEP1R1 / RFU, BIVM-ERCC5 /// ERCC5 / Fold change vs veh, BIVM-ERCC5 /// ERCC5 / RFU, ILF3 / Fold change vs veh, ILF3 / RFU 11762660_at / Fold change /veh 11762660_at / RFU VCAN (11757783_s_at) / Fold change /veh VCAN (11757783_s_at) / RFU DDX43 (11728927_at) / Fold change /veh DDX43 (11728927_at) / RFU KRT8 (11758188_x_at) / Fold change /veh KRT8 (11758188_x_at) / RFU NKD1 (11759106_at) / Fold change /veh NKD1 (11759106_at) / RFU SRD5A1 (11742802_a_at) / Fold change /veh SRD5A1 (11742802_a_at) / RFU TPSAB1 /// TPSB2 (11721975_s_at) / Fold change /veh TPSAB1 /// TPSB2 (11721975_s_at) / RFU GSTM3 (11746129_a_at) / Fold change /veh GSTM3 (11746129_a_at) / RFU IL23R (11737362_x_at) / Fold change /veh IL23R (11737362_x_at) / RFU TMEM51 (11727254_a_at) / Fold change /veh TMEM51 (11727254_a_at) / RFU PIWIL2 (11732686_x_at) / Fold change /veh PIWIL2 (11732686_x_at) / RFU ORM1 (11744905_x_at) / Fold change /veh ORM1 (11744905_x_at) / RFU CCDC152 (11743942_at) / Fold change /veh CCDC152 (11743942_at) / RFU ECM1 (11717891_a_at) / Fold change /veh ECM1 (11717891_a_at) / RFU IL23R (11748794_a_at) / Fold change /veh IL23R (11748794_a_at) / RFU TNFAIP8L3 (11732012_x_at) / Fold change /veh TNFAIP8L3 (11732012_x_at) / RFU MBOAT4 (11741988_at) / Fold change /veh MBOAT4 (11741988_at) / RFU 11764193_at / Fold change /veh 11764193_at / RFU TMEM53 (11763286_at) / Fold change /veh TMEM53 (11763286_at) / RFU MAGEB2 (11727129_at) / Fold change /veh MAGEB2 (11727129_at) / RFU TMEM200A (11744735_a_at) / Fold change /veh TMEM200A (11744735_a_at) / RFU CCDC152 (11751479_a_at) / Fold change /veh CCDC152 (11751479_a_at) / RFU FAM211A (11726209_a_at) / Fold change /veh FAM211A (11726209_a_at) / RFU RGS16 (11746705_a_at) / Fold change /veh RGS16 (11746705_a_at) / RFU VCAN (11755009_s_at) / Fold change /veh VCAN (11755009_s_at) / RFU RHOB (11743442_s_at) / Fold change /veh RHOB (11743442_s_at) / RFU RGS16 (11720943_a_at) / Fold change /veh RGS16 (11720943_a_at) / RFU RGS16 (11720944_at) / Fold change /veh RGS16 (11720944_at) / RFU, VPS4B / Fold change vs veh, VPS4B / RFU, CREB1 / Fold change vs veh, CREB1 / RFU, DNAJC13 / Fold change vs veh, DNAJC13 / RFU, GNAQ / Fold change vs veh, GNAQ / RFU, CDK5R1 / Fold change vs veh, CDK5R1 / RFU, ZRANB3 / Fold change vs veh, ZRANB3 / RFU, CUL4A / Fold change vs veh, CUL4A / RFU, CCNY / Fold change vs veh, CCNY / RFU, UFL1 / Fold change vs veh, UFL1 / RFU, COG3 / Fold change vs veh, COG3 / RFU, DIAPH2 / Fold change vs veh, DIAPH2 / RFU, SKA2 / Fold change vs veh, SKA2 / RFU, AFF3 / Fold change vs veh, AFF3 / RFU, LMF1 / Fold change vs veh, LMF1 / RFU, IPO11 / Fold change vs veh, IPO11 / RFU, DFFB / Fold change vs veh, DFFB / RFU, FOXP1 / Fold change vs veh, FOXP1 / RFU, CARD8 / Fold change vs veh, CARD8 / RFU, STRN3 / Fold change vs veh, STRN3 / RFU, ADK / Fold change vs veh, ADK / RFU, RASSF2 / Fold change vs veh, RASSF2 / RFU, WIPF1 / Fold change vs veh, WIPF1 / RFU, LARP1B / Fold change vs veh, LARP1B / RFU, RASA1 / Fold change vs veh, RASA1 / RFU, RB1 / Fold change vs veh, RB1 / RFU, PPFIA1 / Fold change vs veh, PPFIA1 / RFU, MAT2A / Fold change vs veh, MAT2A / RFU, CCT5 / Fold change vs veh, CCT5 / RFU, WDR92 / Fold change vs veh, WDR92 / RFU, CUX1 / Fold change vs veh, CUX1 / RFU, TTC7A / Fold change vs veh, TTC7A / RFU, TMEM135 / Fold change vs veh, TMEM135 / RFU, DEPTOR / Fold change vs veh, DEPTOR / RFU, CPM / Fold change vs veh, CPM / RFU, DNAJB6 / Fold change vs veh, DNAJB6 / RFU, CACNA2D3 / Fold change vs veh, CACNA2D3 / RFU, DTX4 / Fold change vs veh, DTX4 / RFU, TFCP2 / Fold change vs veh, TFCP2 / RFU, GMCL1 /// GMCL1P1 / Fold change vs veh, GMCL1 /// GMCL1P1 / RFU, AEBP2 / Fold change vs veh, AEBP2 / RFU, SNHG1 /// SNORD22 /// SNORD25 /// SNORD26 /// SNORD27 /// SNORD28 /// SNORD29 /// SNORD31 / Fold change vs veh, SNHG1 /// SNORD22 /// SNORD25 /// SNORD26 /// SNORD27 /// SNORD28 /// SNORD29 /// SNORD31 / Fold change (Aza/veh), C12orf56 (ProbeSet 11735607_a_at) / Fold change (ACY-1035/veh), C12orf56 (ProbeSet 11735607_a_at) / Fold change (Aza/veh), FGFR1OP (ProbeSet 11751329_s_at) / Fold change (ACY-1035/veh), FGFR1OP (ProbeSet 11751329_s_at) / Fold change (Aza/veh), VPS36 (ProbeSet 11739960_a_at) / Fold change (ACY-1035/veh), VPS36 (ProbeSet 11739960_a_at) / RFU SYPL1 (11715823_x_at) / Fold change /veh SYPL1 (11715823_x_at) / RFU IGFBP7 (11715501_s_at) / Fold change /veh IGFBP7 (11715501_s_at) / RFU REEP3 (11722064_at) / Fold change /veh REEP3 (11722064_at) / RFU IGLL1 (11728026_x_at) / Fold change /veh IGLL1 (11728026_x_at): dose or concentration left out as unconfirmed
Details: MV-4-11 cells, 48 hours

Nc1ccc(-c2cccs2)cc1NC(=O)c1ccc2c(c1)cc(C1CC1)n2CCN1CCOCC1 [ACY-1035]
RFU FAM26E (11764081_at): 5.59 RFU
